Tests used:
Nav1.2 = Nav1.2 (Homo sapiens, UniProt Q99250); conditions: read-out: TTX IC-50; cited from earlier work
Nav1.3 = Nav1.3 (Homo sapiens, UniProt Q9NY46); conditions: read-out: TTX IC-50; cited from earlier work
Nav1.8 = Nav1.8 (Homo sapiens, UniProt Q9Y5Y9); conditions: read-out: TTX IC-50; cited from earlier work
Nav1.6 = Nav1.6 (Homo sapiens, UniProt Q9UQD0); conditions: read-out: TTX IC-50; cited from earlier work
Nav1.1 = Nav1.1 (Homo sapiens, UniProt P35498); conditions: read-out: TTX IC-50; cited from earlier work
Nav1.9 = Nav1.9 (Homo sapiens, UniProt Q9UI33); conditions: read-out: TTX IC-50; cited from earlier work
hSCN3A sodium channels = target: T1, hSCN3A sodium channels (Homo sapiens, UniProt Q9NY46); assay: hSCN3A electrophysiology, whole-cell patch-clamp or PatchXpress 7000, estimated IC-50 (Table B); format: cell-based; conditions: estimated IC-50; hSCN3A cells, whole-cell patch-clamp or PatchXpress 7000; read-out: SCN3A EIC-50
T1 construct: expressed in transfected cells
Method in brief: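 Stably transfected HEK cells, whole-cell voltage clamp at 22-24° C, manual or PatchXpress 7000. Cells held at empirically determined inactivation V1/2; current evoked by 20 msec step to 0 mV after 8 sec prepulse to V1/2.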

[1] = format: in vivo, rat; conditions: in contrast to compounds I, II and III
Experimental: The bioanalysis of plasma samples from rats dosed with LC/MS/MS detection of sulfathiazole as measured against an internal standard. Extraction was performed on-line with a turbulent flow chromatography system (HTLC). The transfer from the HTLC to the analytical HPLC is automatic. The mass spectrometer was operated in API ionization mode with an electrospray interface between the analytical HPLC and the mass spectrometer. Multiple reaction monitoring (mrm) detection was used for each analyte on a triple quadrupole mass spectrometer.
2. Materials • HPLC grade reagents were used such as: • Water (Hydro Services Picosystem water filtration) • Methanol (Fisher Ultima) • Ammonium formate (Sigma), and • Formic acid (Sigma) • Rat plasma • sulfathiazole • internal standard B. Instrument Conditions • Mass spectrometer: • Positive ion, mrm detection at • m/z 256 to m/z 108 for ICA-000024 • m/z 342 to m/z 218 for ICA-18756 (internal standard) • 100 ms Dwell time • Cone voltage, capillary voltage and collision energy were optimized for each compound • Source Temperature: 125 C, Desolvation temperature: 325 C • Cone gas at 73 L/hr, and Desolvation gas at 740 L/hr C. Chromatography Conditions
1. Mobile Phases: • A: 98% water:2% methanol with • 4 mM ammonium formate, 0.1% formic acid • B: 98% methanol:2% water with • 4 mM ammonium formate, 0.1% formic acid
2. HTLC Turbulent Flow Quaternary Pump • Column: Cohesive Cyclone Turbo-Flow • Timetable:
3. Analytical Binary Pump • Column: Phenomenex Synergi Hydro-RP 4u 50 mm×2.1 mm • Timetable:
4. Injection Volume • 20 μL D. Preparation of Standards and Samples
Plasma standards and samples were prepared for injection according to the standard operating procedure, HTLC Plasma Analysis by LC/MS/MS.

T1 sequence (Q9NY46 whole entry): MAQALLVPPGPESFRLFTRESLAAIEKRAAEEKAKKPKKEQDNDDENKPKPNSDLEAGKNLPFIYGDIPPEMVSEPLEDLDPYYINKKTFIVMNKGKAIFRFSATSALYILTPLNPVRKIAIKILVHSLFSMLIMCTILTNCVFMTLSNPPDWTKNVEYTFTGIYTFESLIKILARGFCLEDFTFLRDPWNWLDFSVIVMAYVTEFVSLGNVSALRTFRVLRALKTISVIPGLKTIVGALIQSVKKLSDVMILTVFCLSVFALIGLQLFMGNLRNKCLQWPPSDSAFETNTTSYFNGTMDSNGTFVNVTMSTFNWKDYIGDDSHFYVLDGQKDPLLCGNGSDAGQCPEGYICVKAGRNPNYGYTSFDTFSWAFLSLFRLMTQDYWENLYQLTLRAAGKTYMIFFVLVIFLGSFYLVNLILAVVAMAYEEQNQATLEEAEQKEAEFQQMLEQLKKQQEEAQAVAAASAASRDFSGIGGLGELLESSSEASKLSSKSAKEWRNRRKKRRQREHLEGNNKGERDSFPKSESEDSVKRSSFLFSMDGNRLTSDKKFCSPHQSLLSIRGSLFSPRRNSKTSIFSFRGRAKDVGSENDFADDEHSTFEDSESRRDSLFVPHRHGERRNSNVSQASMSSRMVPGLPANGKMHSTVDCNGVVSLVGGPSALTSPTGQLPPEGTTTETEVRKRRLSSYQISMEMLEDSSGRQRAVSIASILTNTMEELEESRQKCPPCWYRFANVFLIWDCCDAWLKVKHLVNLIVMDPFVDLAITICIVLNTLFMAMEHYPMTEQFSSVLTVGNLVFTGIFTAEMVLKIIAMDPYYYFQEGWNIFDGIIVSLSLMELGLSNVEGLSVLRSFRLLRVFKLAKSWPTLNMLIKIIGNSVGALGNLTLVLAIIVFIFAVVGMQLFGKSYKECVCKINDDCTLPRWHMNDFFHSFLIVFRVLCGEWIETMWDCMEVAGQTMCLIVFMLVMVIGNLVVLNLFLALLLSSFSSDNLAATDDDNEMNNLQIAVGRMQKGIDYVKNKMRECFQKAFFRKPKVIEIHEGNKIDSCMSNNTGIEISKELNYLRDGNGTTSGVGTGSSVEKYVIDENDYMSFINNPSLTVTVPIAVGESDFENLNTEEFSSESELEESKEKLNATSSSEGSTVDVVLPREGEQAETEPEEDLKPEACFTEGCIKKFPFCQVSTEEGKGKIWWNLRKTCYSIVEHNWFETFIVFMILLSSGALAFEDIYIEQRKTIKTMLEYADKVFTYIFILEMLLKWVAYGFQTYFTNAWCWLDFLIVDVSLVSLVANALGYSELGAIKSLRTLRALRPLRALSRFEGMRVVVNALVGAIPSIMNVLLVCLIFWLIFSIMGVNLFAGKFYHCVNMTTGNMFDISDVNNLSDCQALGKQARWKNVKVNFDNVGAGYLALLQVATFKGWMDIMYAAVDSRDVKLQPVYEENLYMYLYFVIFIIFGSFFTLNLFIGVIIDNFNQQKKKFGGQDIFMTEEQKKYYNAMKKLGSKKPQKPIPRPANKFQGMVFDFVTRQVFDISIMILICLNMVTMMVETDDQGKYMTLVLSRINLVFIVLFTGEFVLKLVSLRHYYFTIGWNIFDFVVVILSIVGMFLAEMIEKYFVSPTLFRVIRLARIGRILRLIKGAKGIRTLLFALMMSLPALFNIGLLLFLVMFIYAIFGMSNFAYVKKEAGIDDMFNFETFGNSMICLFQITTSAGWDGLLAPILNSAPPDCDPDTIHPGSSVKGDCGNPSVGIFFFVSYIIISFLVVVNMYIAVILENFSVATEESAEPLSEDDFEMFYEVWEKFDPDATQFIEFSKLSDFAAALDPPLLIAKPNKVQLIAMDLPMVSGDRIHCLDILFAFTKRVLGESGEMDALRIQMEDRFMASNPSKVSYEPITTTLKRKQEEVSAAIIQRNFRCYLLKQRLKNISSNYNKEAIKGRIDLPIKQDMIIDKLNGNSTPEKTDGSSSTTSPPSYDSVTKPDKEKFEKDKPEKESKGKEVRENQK
Nav1.8, sequence (Q9Y5Y9 whole entry, looked up): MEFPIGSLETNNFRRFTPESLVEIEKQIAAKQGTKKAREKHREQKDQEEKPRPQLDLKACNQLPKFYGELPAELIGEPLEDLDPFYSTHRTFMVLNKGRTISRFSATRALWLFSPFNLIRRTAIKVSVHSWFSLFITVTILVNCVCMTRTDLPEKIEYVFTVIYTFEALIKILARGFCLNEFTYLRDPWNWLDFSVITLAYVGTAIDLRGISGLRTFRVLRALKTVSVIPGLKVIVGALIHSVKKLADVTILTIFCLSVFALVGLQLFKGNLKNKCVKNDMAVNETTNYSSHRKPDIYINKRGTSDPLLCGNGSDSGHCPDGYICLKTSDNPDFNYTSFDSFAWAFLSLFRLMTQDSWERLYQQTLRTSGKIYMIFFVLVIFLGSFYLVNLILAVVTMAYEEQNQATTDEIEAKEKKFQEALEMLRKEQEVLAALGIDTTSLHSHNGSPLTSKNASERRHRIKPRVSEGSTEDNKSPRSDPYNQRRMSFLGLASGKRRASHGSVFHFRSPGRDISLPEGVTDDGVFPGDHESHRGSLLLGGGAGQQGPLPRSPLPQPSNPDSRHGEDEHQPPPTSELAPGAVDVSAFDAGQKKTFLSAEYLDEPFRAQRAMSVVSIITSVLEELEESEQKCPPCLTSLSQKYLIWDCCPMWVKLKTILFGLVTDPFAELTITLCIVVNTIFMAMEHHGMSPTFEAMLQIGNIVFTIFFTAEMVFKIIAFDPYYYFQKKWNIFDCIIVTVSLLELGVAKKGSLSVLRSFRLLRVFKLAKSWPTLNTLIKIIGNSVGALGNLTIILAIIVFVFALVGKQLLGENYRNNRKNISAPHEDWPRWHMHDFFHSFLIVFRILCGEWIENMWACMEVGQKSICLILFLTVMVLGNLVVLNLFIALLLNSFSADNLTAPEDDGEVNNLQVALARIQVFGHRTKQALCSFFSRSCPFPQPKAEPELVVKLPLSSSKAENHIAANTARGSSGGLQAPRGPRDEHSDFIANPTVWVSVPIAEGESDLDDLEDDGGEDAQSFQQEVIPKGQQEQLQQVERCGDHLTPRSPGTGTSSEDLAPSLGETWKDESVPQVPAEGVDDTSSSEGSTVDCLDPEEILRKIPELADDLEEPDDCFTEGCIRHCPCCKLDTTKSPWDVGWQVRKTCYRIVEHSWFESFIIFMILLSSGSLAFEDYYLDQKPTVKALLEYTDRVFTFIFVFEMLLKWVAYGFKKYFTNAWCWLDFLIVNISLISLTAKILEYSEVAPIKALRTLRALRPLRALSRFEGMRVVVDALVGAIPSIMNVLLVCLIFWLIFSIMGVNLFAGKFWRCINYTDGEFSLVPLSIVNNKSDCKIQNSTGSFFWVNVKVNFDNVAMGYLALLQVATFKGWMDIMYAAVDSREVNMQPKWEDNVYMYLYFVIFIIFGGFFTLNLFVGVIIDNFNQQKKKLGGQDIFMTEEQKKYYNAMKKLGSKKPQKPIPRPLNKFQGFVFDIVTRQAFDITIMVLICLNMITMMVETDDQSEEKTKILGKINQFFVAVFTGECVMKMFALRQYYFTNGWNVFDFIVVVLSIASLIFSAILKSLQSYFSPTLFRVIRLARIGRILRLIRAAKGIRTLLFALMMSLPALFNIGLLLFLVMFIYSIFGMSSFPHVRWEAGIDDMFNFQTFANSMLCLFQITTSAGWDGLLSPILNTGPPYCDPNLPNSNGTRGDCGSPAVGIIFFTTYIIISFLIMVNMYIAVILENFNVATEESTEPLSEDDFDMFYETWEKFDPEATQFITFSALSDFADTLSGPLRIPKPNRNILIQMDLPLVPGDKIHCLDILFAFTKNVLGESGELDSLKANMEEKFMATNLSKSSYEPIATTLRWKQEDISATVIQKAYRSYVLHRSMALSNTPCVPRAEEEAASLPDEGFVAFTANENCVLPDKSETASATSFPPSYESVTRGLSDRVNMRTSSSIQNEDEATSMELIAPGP
Nav1.3, sequence (Q9NY46 whole entry, looked up): as the sequence (Q9NY46 whole entry) above

SMILES: NC1=N[C@H](O)[C@H]2[C@H]3O[C@]4(O)O[C@@H]([C@@H](O)[C@@]2(N1)[C@@H]4O)[C@]3(O)CO [TTX, tetrodotoxin]
- IC50 (Nav1.2): 0.01 µM
- IC50 (Nav1.3): 0.015 µM
- IC50 (Nav1.8): 50 µM
- IC50 (Nav1.6): 0.006 µM
- IC50 (Nav1.1): 0.01 µM
- IC50 (Nav1.9): 1 µM

SMILES: O=C(NCc1ccc(Cl)cc1)c1ccc(S(=O)(=O)Nc2nccs2)cc1 [Example 100, N-(4-chlorobenzyl)-4-[(1,3-thiazol-2-ylamino)sulfonyl]benzamide]
- IC50 (hSCN3A sodium channels): 0.43 µM
- metabolism to the aniline containing sulfathiazole [1]: do not metabolize to form the aniline containing sulfathiazole

SMILES: CC(C)(C)CCNC(=O)c1ccc(S(=O)(=O)Nc2nccs2)cc1 [Example 418, N-(3,3-dimethylbutyl)-4-[(1,3-thiazol-2-ylamino)sulfonyl]benzamide]
- IC50 (hSCN3A sodium channels): 2.74 µM
- metabolism to the aniline containing sulfathiazole [1]: do not metabolize to form the aniline containing sulfathiazole

SMILES: O=C(NCCOc1ccc(Cl)cc1)c1ccc(S(=O)(=O)Nc2nccs2)cc1 [Example 186, N-[2-(4-chlorophenoxy)ethyl]-4-[(1,3-thiazol-2-ylamino)sulfonyl]benzamide]
- IC50 (hSCN3A sodium channels): 0.42 µM
- metabolism to the aniline containing sulfathiazole [1]: do not metabolize to form the aniline containing sulfathiazole

SMILES: O=C(NCc1ccc(Cl)cc1C(F)(F)F)c1ccc(S(=O)(=O)Nc2nccs2)cc1 [Example 406, N-[4-chloro-2-(trifluoromethyl)benzyl]-4-[(1,3-thiazol-2-ylamino)sulfonyl] benzamide]
- IC50 (hSCN3A sodium channels): 0.26 µM

SMILES: Cc1cc(CC(NC(=O)c2ccc(S(=O)(=O)Nc3nccs3)cc2)c2cccc(Cl)c2)on1 (centres unmarked) [Example 136, N-[1-(3-chlorophenyl)-2-(3-methylisoxazol-5-yl)ethyl]-4-[(1,3-thiazol-2-ylamino)sulfonyl]benzamide]
- IC50 (hSCN3A sodium channels): 4.26 µM

SMILES: CC(NC(=O)c1ccc(S(=O)(=O)Nc2ncns2)c(F)c1)c1ccc(C(F)(F)F)cc1 (centres unmarked) [Example 320, 3-Fluoro-4-[(1,2,4-thiadiazol-5-ylamino)sulfonyl]-N-{1-[4-(trifluoromethyl)phenyl]ethyl}benzamide]
- IC50 (hSCN3A sodium channels): 2.66 µM

SMILES: CN(Cc1ccc(F)cc1)C(=O)c1ccc(S(=O)(=O)Nc2ncc(Cl)s2)cc1 [Example 43, 4-{[(5-Chloro-1,3-thiazol-2-yl)amino]sulfonyl}-N-(4-fluorobenzyl)-N-methylbenzamide]
- IC50 (hSCN3A sodium channels): 4.83 µM

SMILES: O=C(NCCc1ccccc1Cl)c1ccc(S(=O)(=O)Nc2nccs2)cc1 [Example 96, N-[2-(2-chlorophenyl)ethyl]-4-[(1,3-thiazol-2-ylamino)sulfonyl]benzamide]
- IC50 (hSCN3A sodium channels): 0.91 µM

SMILES: O=C(NCc1ccc(C(F)(F)F)c(F)c1)c1ccc(S(=O)(=O)Nc2ncc(Cl)s2)c(Cl)c1 [Example 366, 3-Chloro-4-{[(5-chloro-1,3-thiazol-2-yl)amino]sulfonyl}-N-[3-fluoro-4-(trifluoromethyl)benzyl] benzamide]
- IC50 (hSCN3A sodium channels): 0.73 µM

SMILES: COc1ccccc1CC1CCCN(C(=O)c2ccc(S(=O)(=O)Nc3nccs3)cc2)C1 (centres unmarked) [Example 196, 4-{[3-(2-Methoxybenzyl)piperidin-1-yl]carbonyl}-N-1,3-thiazol-2-yl-benzenesulfonamide]
- IC50 (hSCN3A sodium channels): > 1 µM

SMILES: O=C(NCc1ccc(C(F)(F)F)cc1)c1ccc(S(=O)(=O)Nc2ncc(Cl)s2)cn1 [Example 344, 5-{[(5-Chloro-1,3-thiazol-2-yl)amino]sulfonyl}-N-[4-(trifluoromethyl)benzyl]pyridine-2-carboxamide]
- IC50 (hSCN3A sodium channels): 0.52 µM

SMILES: O=C(NCc1ccc(C(F)(F)F)c(F)c1)c1ccc(S(=O)(=O)Nc2nccs2)cc1F [Example 333, 2-Fluoro-N-[3-fluoro-4-(trifluoromethyl)benzyl]-4-[(1,3-thiazol-2-ylamino)sulfonyl] benzamide]
- IC50 (hSCN3A sodium channels): 0.21 µM

SMILES: O=C(NCc1ccc(Cl)c(F)c1)c1ccc(S(=O)(=O)Nc2ncc(Cl)s2)cc1F [Example 355, N-(4-chloro-3-fluorobenzyl)-4-{[(5-chloro-1,3-thiazol-2-yl)amino]sulfonyl}-2-fluorobenzamide]
- IC50 (hSCN3A sodium channels): 0.15 µM

SMILES: O=C(NCc1ccc(OC(F)(F)F)c(F)c1)c1ccc(S(=O)(=O)Nc2ncns2)cc1 [Example 321, N-[3-fluoro-4-(trifluoromethoxy)benzyl]-4-[(1,2,4-thiadiazol-5-ylamino)sulfonyl]benzamide]
- IC50 (hSCN3A sodium channels): 0.04 µM

SMILES: O=C(NCc1cccc(OC(F)(F)F)c1)c1ccc(S(=O)(=O)Nc2ncc(Cl)s2)c(Cl)c1 [Example 364, 3-Chloro-4-{[(5-chloro-1,3-thiazol-2-yl)amino]sulfonyl}-N-[3-(trifluoromethoxy)benzyl]benzamide]
- IC50 (hSCN3A sodium channels): 2.18 µM

SMILES: O=C(NCc1ccc(F)c(OC(F)(F)F)c1)c1ccc(S(=O)(=O)Nc2ncc(Cl)s2)cc1 [Example 32, 4-{[(5-Chloro-1,3-thiazol-2-yl)amino]sulfonyl}-N-[4-fluoro-3-(trifluoromethoxy)benzyl]benzamide]
- IC50 (hSCN3A sodium channels): 0.07 µM

SMILES: O=C(NCc1ccc(Cl)c(Cl)c1)c1ccc(S(=O)(=O)Nc2nccs2)c(Cl)c1 [Example 291, 3-Chloro-N-(3,4-dichlorobenzyl)-4-[(1,3-thiazol-2-ylamino)sulfonyl]benzamide]
- IC50 (hSCN3A sodium channels): 0.71 µM

SMILES: C[C@H]1CN(C(=O)c2ccc(S(=O)(=O)Nc3nccs3)cc2)C[C@@H]1COc1ccccc1 [Example 49, 4-{[(3R,4R)-3-methyl-4-(phenoxymethyl)pyrrolidin-1-yl]carbonyl}-N-1,3-thiazol-2-ylbenzenesulfonamide]
- IC50 (hSCN3A sodium channels): 1.15 µM

SMILES: O=C(NCc1ccc(F)cc1F)c1ccc(S(=O)(=O)Nc2nccs2)cc1 [Example 94, N-(2,4-difluorobenzyl)-4-[(1,3-thiazol-2-ylamino)sulfonyl]benzamide]
- IC50 (hSCN3A sodium channels): > 0.1 µM

SMILES: Cn1cnc(NS(=O)(=O)c2ccc(C(=O)NCc3ccc(C(F)(F)F)cc3)cc2)n1 [Example 9, 4-{[(1-Methyl-1H-1,2,4-triazol-3-yl)amino]sulfonyl}-N-[4-(trifluoromethyl)benzyl]benzamide]
- IC50 (hSCN3A sodium channels): > 10 µM
